Reference: patent publication US9023789B2, “Amylin analogs and pharmaceutical compositions thereof” (Novo Nordisk A/S, priority 2012, dated 2015)

Key:
[1] = molecular target: T1, human calcitonin receptor (Homo sapiens, UniProt P30988); experiment: ASSAY (VII) binding to the human calcitonin receptor (SPA, 125I-Calcitonin); conditions: read-out: hCTR bind IC50;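 further: cell membranes (35 ng/µL) combined with SPA beads in 40 µL of pH 7.4 Hepes buffer, 384-well format, signal counted on a TopCounter instrument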
T1 construct: expressed in transfected cells
T1 sequence (P30988 25-474): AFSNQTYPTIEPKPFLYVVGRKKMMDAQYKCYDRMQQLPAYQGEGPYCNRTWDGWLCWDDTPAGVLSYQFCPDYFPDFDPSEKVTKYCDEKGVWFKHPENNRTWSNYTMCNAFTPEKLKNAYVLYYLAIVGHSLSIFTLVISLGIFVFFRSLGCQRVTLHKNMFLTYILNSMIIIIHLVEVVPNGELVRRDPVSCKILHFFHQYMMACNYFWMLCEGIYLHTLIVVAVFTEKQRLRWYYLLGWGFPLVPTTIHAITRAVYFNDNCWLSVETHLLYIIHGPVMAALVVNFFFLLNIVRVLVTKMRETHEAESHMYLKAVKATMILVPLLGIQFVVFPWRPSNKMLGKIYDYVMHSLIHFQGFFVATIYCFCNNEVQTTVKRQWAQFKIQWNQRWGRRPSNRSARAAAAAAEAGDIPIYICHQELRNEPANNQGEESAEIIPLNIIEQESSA

[2] = ASSAY (III) ThT fibrillation assay for physical stability; assay type: physicochemical
How it was run: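 Physical stability scored by ThT fluorescence (444 nm excitation, 485 nm emission) tracked every 20 min during 37 °C incubation with 960 rpm shaking, ThT at 1 μM final. Values are replicate means with SD at chosen times; HPLC against pramlintide standard gives initial and post-assay soluble concentrations.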

[3] = molecular target: T2, human calcitonin (a) receptor in BHK570 cells (Homo sapiens, UniProt P30988); experiment: ASSAY (II)a functional assay, human calcitonin receptor (CRE luciferase); assay type: cell-based; conditions: read-out: hCTR funct. EC50
T2 construct: expressed in transfected cells
T2 sequence (P30988 25-474): T1 sequence (P30988 25-474)
How it was run: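 Receptor activation is measured as cAMP-driven CRE-luciferase expression in BHK cells expressing the calcitonin receptor, with RAMP-3 co-expressed to form the amylin 3(a) receptor. Cells are exposed to compound for 3 hours at 37° C, and luciferase is then quantified by luminescence.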

Row | Structure (SMILES) | IC50 [1] [nM] | ThT pH 4.0 lag time (h) [2] [h] | EC50 [3] [nM]
1 | CC[C@H](C)[C@H](NC(=O)[C@H](C)NC(=O)CNC(=O)[C@H](Cc1ccccc1)NC(=O)[C@H](CC(N)=O)NC(=O)[C@@H]1CCCN1C(=O)[C@H](CO)NC(=O)[C@H](CO)NC(=O)[C@H](Cc1c[nH]cn1)NC(=O)[C@H](CCCNC(=N)N)NC(=O)[C@H](CC(C)C)NC(=O)[C@H](Cc1ccccc1)NC(=O)[C@H](CC(N)=O)NC(=O)[C@H](C)NC(=O)[C@H](CC(C)C)NC(=O)[C@H](CCCNC(=N)N)NC(=O)[C@H](CCC(N)=O)NC(=O)[C@@H](NC(=O)[C@H](C)NC(=O)[C@@H]1CSSC[C@H](NC(=O)[C@@H](N)CCCCNC(=O)COCCOCCNC(=O)CCCCCCCCCCCCCCCCCCC(=O)O)C(=O)N[C@@H](CC(N)=O)C(=O)N[C@@H]([C@@H](C)O)C(=O)N[C@@H](C)C(=O)N[C@@H]([C@@H](C)O)C(=O)N1)[C@@H](C)O)C(=O)N1CCC[C@H]1C(=O)N[C@@H](CO)C(=O)N[C@@H](CO)C(=O)N[C@H](C(=O)N[C@@H](CC(N)=O)C(=O)N[C@H](C(=O)NCC(=O)N[C@@H](CO)C(=O)N[C@@H](CC(N)=O)C(=O)N[C@H](C(=O)N[C@@H](Cc1ccc(O)cc1)C(N)=O)[C@@H](C)O)C(C)C)[C@@H](C)O [Example 43] | 2.64 | 4 | 0.92
2 | CC[C@H](C)[C@H](NC(=O)[C@H](C)NC(=O)CNC(=O)[C@H](Cc1ccccc1)NC(=O)[C@H](CC(N)=O)NC(=O)[C@@H]1CCCN1C(=O)[C@H](CO)NC(=O)[C@H](CO)NC(=O)[C@H](Cc1c[nH]cn1)NC(=O)[C@H](CCCNC(=N)N)NC(=O)[C@H](CC(C)C)NC(=O)[C@H](Cc1ccccc1)NC(=O)[C@H](CC(N)=O)NC(=O)[C@H](C)NC(=O)[C@H](CC(C)C)NC(=O)[C@H](CCCNC(=N)N)NC(=O)[C@H](CCC(N)=O)NC(=O)[C@@H](NC(=O)[C@H](C)NC(=O)[C@@H]1CSSC[C@H](NC(=O)[C@@H](N)CCCCNC(=O)COCCOCCNC(=O)CC[C@H](NC(=O)CCCCCCCCCCCCCCCCCCC(=O)O)C(=O)O)C(=O)N[C@@H](CC(N)=O)C(=O)N[C@@H]([C@@H](C)O)C(=O)N[C@@H](C)C(=O)N[C@@H]([C@@H](C)O)C(=O)N1)[C@@H](C)O)C(=O)N1CCC[C@H]1C(=O)N[C@@H](CO)C(=O)N[C@@H](CO)C(=O)N[C@H](C(=O)N[C@@H](CC(N)=O)C(=O)N[C@H](C(=O)NCC(=O)N[C@@H](CO)C(=O)N[C@@H](CC(N)=O)C(=O)N[C@H](C(=O)N[C@@H](Cc1ccc(O)cc1)C(N)=O)[C@@H](C)O)C(C)C)[C@@H](C)O [Example 41] | 21.3 | 7 | 4.35
